Results taken from publication doi:10.1101/2024.08.25.609621 (bioRxiv, 2024).
Where two headings read alike, the source gives them in different places.

Target: SARS-CoV-2 NSP3 macrodomain (Mac1), P43 crystal form (Severe acute respiratory syndrome coronavirus 2, UniProt P0DTD1)
Type: binding
Settings: for 1-BDC: PanDDA background density correction; for Total number of conformations: ligand conformations modeled in Mac1 crystal structure
[1] = TRUE = crystal structure with ligand determined
[2] = crystal soak concentration 20 mM
[3] = crystal soak concentration 20 mM, event 1
[4] = crystal soak concentration 20 mM, P43 crystals
[5] = crystal soak, soak concentration 10 mM
[6] = crystal soak, soak concentration 10 mM, P43 crystals, TRUE = ligand-binding event identified
[7] = crystal soak, soak concentration 10 mM, event 1
[8] = crystal soak, soak concentration 10 mM, TRUE = ligand modeled
[9] = occupancy estimate from PanDDA 1-BDC
[10] = site of Mac1 where ligand bound in crystal structure
[11] = crystal soak concentration 3 mM, P43 crystals
[12] = crystal soak concentration 3 mM
[13] = crystal soak concentration 10 mM, event 1
[14] = crystal soak concentration 10 mM, P43 crystals
[15] = crystal soak concentration 10 mM
[16] = crystal soak, soak concentration 10 mM, TRUE = ligand hit
[17] = crystal structure with Mac1 determined (TRUE)
[18] = site of ligand in Mac1 crystal structure

| SMILES | 1-BDC | X-ray crystal structure [1] | PanDDA run, DMSO background map: Hit [2] | PanDDA run, DMSO background map: 1-BDC [3] | Pandda run, overall: Hit [4] | Pandda run, overall: Modeling comment [4] | Total number of conformations | 2*(1-BDC) (%) [9] [%] | Binding site [10] | PanDDA run, DMSO background map: 1-BDC [13] | Pandda run, overall: Hit [14] | PanDDA run, DMSO background map: Hit [15] | Pandda run, overall: Hit [16] | PanDDA run, DMSO background map: 1-BDC (soak concentration 10 mM) | PanDDA run, DMSO background map: Hit (soak concentration 10 mM) | further results |
| --- | --- | --- | --- | --- | --- | --- | --- | --- | --- | --- | --- | --- | --- | --- | --- | --- |
| O=C(O)C1CCCN1S(=O)(=O)c1cccc2nsnc12 (stereo not drawn) [AVI-2] | 0.2 | TRUE | TRUE | 0.22 | TRUE | Duplicate, not modeled | 1 | 40 | Adenosine | – | – | – | – | – | – | Pandda run, overall: Modeling comment [5]: DMSO; Pandda run, overall: Hit [6]: TRUE; PanDDA run, DMSO background map: Hit [5]: TRUE; PanDDA run, DMSO background map: Modeled [5]: TRUE; PanDDA run, DMSO background map: 1-BDC [7]: 0.2; Pandda run, overall: Modeled [8]: TRUE |
| CC1CC(C(=O)O)CCN1C(=O)c1ccc2c(c1)NC(=O)CO2 (stereo not drawn) [AVI-303] | 0.13 | TRUE | TRUE | 0.19 | TRUE | Duplicate, not modeled | 1 | 26 | Adenosine | – | – | – | – | – | – | Pandda run, overall: Hit [6]: TRUE; PanDDA run, DMSO background map: Hit [5]: TRUE; PanDDA run, DMSO background map: Modeled [5]: TRUE; PanDDA run, DMSO background map: 1-BDC [7]: 0.13; Pandda run, overall: Modeled [8]: TRUE |
| Cc1c(C)n(Cc2ccccc2)c2ncnc(N)c12 [AVI-321] | 0.08 | TRUE | – | – | – | – | 1 | 16 | Adenosine | – | – | – | – | – | – | PanDDA run, DMSO background map: 1-BDC (event 1): 0.15; Pandda run, overall: Hit [11]: TRUE; Pandda run, overall: Modeled [11]: TRUE; PanDDA run, DMSO background map: Hit [12]: TRUE; PanDDA run, DMSO background map: Modeled [12]: TRUE; PanDDA run, DMSO background map: 1-BDC (crystal soak concentration 3 mM, event 1): 0.08 |
| Cc1cc2c(=O)n(CCN3C(=O)c4ccccc4S3(=O)=O)nnc2s1 [AVI-341] | 0.18 | TRUE | TRUE | 0.19 | TRUE | Duplicate, not modeled | 1 | 36 | Adenosine | 0.18 | TRUE | TRUE | – | – | – | Pandda run, overall: Modeled [14]: TRUE; PanDDA run, DMSO background map: Modeled [15]: TRUE |
| CNc1ccc(NS(=O)(=O)c2cc3cccc(C)c3s2)cn1 [AVI-345] | 0.26 | TRUE | TRUE | 0.26 | TRUE | – | 1 | – | Adenosine | 0.17 | TRUE | TRUE | – | – | – | Occupancy difference (refined_occupancy - 2*(1-BDC)): 0; Refined ligand occupancy (%): 52%; Pandda run, overall: Modeling comment [14]: Duplicate, not modeled; PanDDA run, DMSO background map: Modeled [2]: TRUE; Pandda run, overall: Modeled [4]: TRUE; 2*(1-BDC) (%) (occupancy estimate from PanDDA BDC): 52% |
| CC1CCN(C(=O)c2ccc3c(c2)nc(CO)n3C)CC1C(=O)O (stereo not drawn) [AVI-348] | 0.25 | TRUE | TRUE | 0.34 | TRUE | Duplicate, not modeled | 1 | 50 | Adenosine | 0.25 | TRUE | TRUE | – | – | – | Pandda run, overall: Modeled [14]: TRUE; PanDDA run, DMSO background map: Modeled [15]: TRUE |
| OC[C@@H]1C[C@H](F)CN1c1ncnc2[nH]ccc12 [AVI-609] | 0.17 | – | – | – | – | – | 1 | 34 | – | – | – | – | TRUE | 0.17 | TRUE | Pandda run, overall: Modeled [5]: TRUE; X-ray crystallography: Binding site (site where the ligand is bound in the X-ray crystal structure): Adenosine |
| NC(=O)C1(O)CCN(c2ncnc3[nH]ccc23)C1 (stereo not drawn) [AVI-611] | 0.22 | – | – | – | – | – | 2 | 44 | – | – | – | – | TRUE | 0.22 | TRUE | Pandda run, overall: Modeled [5]: TRUE; X-ray crystal structure [17]: TRUE; Binding site [18]: Adenosine |
| CCC1(O)CCN(c2ncnc3[nH]ccc23)C1 (stereo not drawn) [AVI-612] | 0.17 | – | – | – | – | – | 1 | 34 | – | – | – | – | – | – | – | Pandda run, overall: Modeled (crystal soak, soak concentration 5 mM): TRUE; Pandda run, overall: Hit (crystal soak, soak concentration 5 mM, TRUE = ligand hit): TRUE; X-ray crystal structure [17]: TRUE; Binding site [18]: Adenosine; PanDDA run, DMSO background map: 1-BDC (soak concentration 5 mM): 0.17; PanDDA run, DMSO background map: Hit (soak concentration 5 mM): TRUE |
| CN(C)C[C@@]1(O)CCCN(c2ncnc3[nH]ccc23)C1 [AVI-614] | – | – | – | – | – | – | – | – | – | – | – | – | TRUE | 0.17 | TRUE | Pandda run, overall: Modeling comment [5]: Weak density, not modeled |
